How the values were obtained:
[1] = Aqueous solubility; type: physicochemical
[2] = target: human TRPV1 (Homo sapiens (Human), UniProt Q8NER1); assay: Capsaicin-based assay, Protocol 2 (hCAP-CHO); type: cell-based; conditions: TRPV1/CHO cells, 100 nM capsaicin; mean ± SEM; read-out: TRPV1 IC50 Potency Human Capsaicin CHO (hCAP-CHO)
Description: The TRPV1/CHO cell line was generated as described below. […] The resulting PCR products were purified from agarose gels using Gel Band Purification Kit (GE Healthcare Bioscience) and were subcloned into pCR-Blunt vector (Invitrogen). The cloned cDNA was fully sequenced using a fluorescent dye-terminator reagent (BigDye Terminator ver3.1 Cycle Sequencing Kit, Applied Biosystems) and ABI Prism 3100 genetic analyzer (Applied Biosystems). The pCR-Blunt vector containing the hTRPV1 cDNA was subjected to restriction digestion with EcoR1. The restriction fragment was subcloned into expression vector pcDNA3.1(-) (Invitrogen) and named pcDNA3.1(-)-hVR1 plasmid. The sequence of the cDNA encoding TRPV1 is available at GenBank accession number AJ277028. […] The cells were transfected with the pcDNA3.1(-)-hVR1 plasmid using FuGENE6 (Roche) according to the manufacturer's protocol. 24 hr after transfection, neomycin-resistant cells were selected using 1 mg/mL G418 (Nacalai Tesque). […] The cells expressing hTRPV1 were cultured in the growth medium supplemented with 1 mg/mL G418. […] Subsequently, the cells were loaded by incubation in 0.1 mL of wash buffer containing Fluo-4 at 3 μM final concentration. After 1 hour, the cells were washed twice with 0.2 mL wash buffer and resuspended in 0.1 mL wash buffer. The plates were then transferred to a Fluorescence Imaging Plate Reader (Molecular Devices). Fluorescence intensity was monitored for 15 seconds to establish a baseline. […] The final concentration of the compound was adjusted to range from 100 μM to 1.5625 μM. […] Data were collected over the entire time course and analyzed using Excel and the curve-fitting formula GraphPad Prism.

[3] = target: TRPV1 receptor (Rattus norvegicus (Rat), UniProt O35433); assay: Capsaicin-induced eye wipe test; type: in vivo; conditions: for number of capsaicin-induced eye wipes: pre-administration value 24
TRPV1 receptor, sequence (O35433 whole entry): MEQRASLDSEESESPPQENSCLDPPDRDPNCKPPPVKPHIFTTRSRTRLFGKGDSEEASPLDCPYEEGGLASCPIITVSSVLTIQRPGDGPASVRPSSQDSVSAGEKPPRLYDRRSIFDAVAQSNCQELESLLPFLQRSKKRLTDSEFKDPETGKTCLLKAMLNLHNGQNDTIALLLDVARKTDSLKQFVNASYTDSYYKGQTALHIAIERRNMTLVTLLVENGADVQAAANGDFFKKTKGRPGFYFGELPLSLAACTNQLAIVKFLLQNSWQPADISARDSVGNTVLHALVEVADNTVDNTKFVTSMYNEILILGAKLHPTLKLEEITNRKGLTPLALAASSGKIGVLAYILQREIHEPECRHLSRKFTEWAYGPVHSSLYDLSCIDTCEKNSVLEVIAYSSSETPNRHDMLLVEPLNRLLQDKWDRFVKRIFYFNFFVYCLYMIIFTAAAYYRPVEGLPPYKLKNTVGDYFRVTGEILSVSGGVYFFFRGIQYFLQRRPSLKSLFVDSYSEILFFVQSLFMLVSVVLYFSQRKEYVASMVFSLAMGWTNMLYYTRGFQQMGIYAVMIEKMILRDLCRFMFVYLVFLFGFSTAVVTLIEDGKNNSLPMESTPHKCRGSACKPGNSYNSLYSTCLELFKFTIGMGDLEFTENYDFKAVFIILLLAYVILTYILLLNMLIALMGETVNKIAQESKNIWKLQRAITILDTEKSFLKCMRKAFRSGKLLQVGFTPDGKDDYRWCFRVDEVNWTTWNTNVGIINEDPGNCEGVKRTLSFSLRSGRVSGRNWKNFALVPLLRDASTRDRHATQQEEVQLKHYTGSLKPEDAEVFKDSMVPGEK
Description: Each experiment uses rats weighing between 200-260 g at the start of the experiment. The rats are group-housed and have free access to food and water at all times, except prior to oral administration of a compound of formula I when food is removed for 16 hours before dosing. A control group acts as a comparison to rats treated with a compound of formula I. The control group is administered the carrier for the compound of formula I. The volume of carrier administered to the control group is the same as the volume of carrier and compound of formula I administered to the test group.
To assess the effect of compounds of formula I on TRPV1 receptor-mediated pain, the capsaicin-induced eye wipe test is used (N. R. Gavva et al., “AMG 9810 [(E)-3-(4-t-Butylphenyl)-N-(2,3-dihydrobenzo[b][1,4]dioxin-6-yl)acrylamide], a Novel Vanilloid Receptor 1 (TRPV1) Antagonist with Antihyperalgesic Properties”, J. Pharmacol. Exp. Ther. 313:474-484 (2005)). The eye wipe test is a reliable high-throughput test of the effect of TRPV1 antagonists. Rats are given a single injection of 1, 3, 10 or 30 mg/kg of either a compound of formula I; 30 mg/kg of a control selected from Celebrex, indomethacin or naproxen; or carrier. At 1, 3 or 5 hours after drug administration, […] of a 100 μM capsaicin solution (in 10% EtOH/PBS) is instilled in one eye of each animal with a pipette. The number of forelimb movements (touching or wiping of the capsaicin-treated eye) are counted during a 2 minute period following instillation of capsaicin into the eye.

[4] = Plasma concentration after administration to an animal; type: in vivo

human TRPV1, sequence (Q8NER1 whole entry, the tested form may be a part): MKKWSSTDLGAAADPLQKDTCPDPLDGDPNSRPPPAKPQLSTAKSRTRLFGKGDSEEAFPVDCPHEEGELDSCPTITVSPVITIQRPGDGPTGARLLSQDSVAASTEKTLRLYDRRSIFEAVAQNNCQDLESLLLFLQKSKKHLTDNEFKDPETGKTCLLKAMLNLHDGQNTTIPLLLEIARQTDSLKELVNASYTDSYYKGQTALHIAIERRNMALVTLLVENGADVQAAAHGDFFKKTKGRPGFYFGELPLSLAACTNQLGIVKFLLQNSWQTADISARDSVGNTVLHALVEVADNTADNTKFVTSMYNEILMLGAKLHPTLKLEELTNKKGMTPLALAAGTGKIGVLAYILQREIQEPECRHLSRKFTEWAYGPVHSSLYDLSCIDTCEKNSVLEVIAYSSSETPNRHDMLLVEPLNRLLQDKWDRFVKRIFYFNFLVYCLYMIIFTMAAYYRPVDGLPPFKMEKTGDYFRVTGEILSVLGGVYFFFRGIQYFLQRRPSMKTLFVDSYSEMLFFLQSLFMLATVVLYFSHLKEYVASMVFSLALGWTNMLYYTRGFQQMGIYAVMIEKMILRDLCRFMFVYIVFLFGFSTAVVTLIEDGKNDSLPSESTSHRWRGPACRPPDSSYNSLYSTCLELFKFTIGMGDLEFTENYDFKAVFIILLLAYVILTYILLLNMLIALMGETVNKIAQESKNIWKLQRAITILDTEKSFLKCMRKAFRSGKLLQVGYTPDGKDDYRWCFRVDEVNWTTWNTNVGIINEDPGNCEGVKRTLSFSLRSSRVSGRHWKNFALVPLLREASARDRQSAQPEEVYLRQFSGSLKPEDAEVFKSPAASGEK

Structure (SMILES) | aqueous solubility at pH 1.2 [1] [μM] | aqueous solubility at pH 6.8 [1] [μM] | also measured
CC(C)(C)c1ccc(NC(=O)N2CC=C(c3ncc([C@@H](O)CO)cc3Cl)CC2)cc1 [Compound E1] |  |  | IC50 [2]: 0.0185 ± 0.0049 µM
O=C(Nc1ccc(OC(F)(F)F)cc1)N1CC=C(c2ncc([C@H](O)CO)cc2Cl)CC1 [Compound E2] | > 50 | > 50 | 
O=C(Nc1ccc(OC(F)(F)F)cc1)N1CCC(F)(c2ncc([C@H](O)CO)cc2Cl)CC1 [Compound C1] | > 50 | 15.7 | 
O=C(Nc1ccc(OC(F)(F)F)cc1)N1CC=C(c2ncccc2Cl)CC1 [Compound 214] | > 50 | 1.8 | 
O=C1C=C(c2ncc([C@H](O)CO)cc2Cl)CCN1C(=O)Nc1ccc(C(F)(F)F)cn1 [Compound C6] |  |  | IC50 [2]: > 25 µM
O=C(Nc1ccc(C(F)(F)F)c(F)c1)N1CCC(F)(c2ncccc2F)CC1 [Compound 212] | 10.3 | 1.9 | 
O=C(Nc1ccc(C(F)(F)F)cc1)N1CCC(F)(c2ncccc2F)CC1 [Compound 207] |  |  | aqueous solubility at pH 6.8 (in words) [1]: insoluble
O=C(Nc1ccc(C(F)(F)F)cc1)N1CC=C(c2ncccc2F)CC1 [Compound 208] |  |  | aqueous solubility at pH 6.8 (in words) [1]: insoluble
O=C(Nc1ccc(C(F)(F)F)c(Cl)c1)N1CC=C(c2ncccc2F)CC1 [Compound 215] | 9.6 | 0.6 | 
O=C(Nc1ccc(C(F)(F)F)c(F)c1)N1CC=C(c2ncccc2Cl)CC1 [Compound 213] | 39.6 | 0.8 | 
O=C(Nc1ccc(C(F)(F)F)c(F)c1)N1CCC(F)(c2ncccc2Cl)CC1 [Compound 209] | 9.3 | 1.0 | 
O=C(Nc1ccc(C(F)(F)F)cc1)N1CCC(F)(c2ncc([C@H](O)CO)cc2Cl)CC1 [Compound N1, (S)-4-(3-chloro-5-(1,2-dihydroxyethyl)pyridin-2-yl)-4-fluoro-N-(4-(trifluoromethyl)phenyl)piperidine-1-carboxamide] | > 50 | 28.0 | decrease of eye wipes relative to pre-administration value ([3]; 1 hour after administration): 87.5%; number of capsaicin-induced eye wipes ([3]; 1 hour after administration): 3; decrease of eye wipes relative to pre-administration value ([3]; 3 hours after administration): 96%; number of capsaicin-induced eye wipes ([3]; 3 hours after administration): 1; decrease of eye wipes relative to pre-administration value ([3]; 5 hours after administration): 92%; number of capsaicin-induced eye wipes ([3]; 5 hours after administration): 2
O=C(Nc1ccc(OC(F)(F)F)cc1)N1CCC(F)(c2ncccc2Cl)CC1 [Compound 211] | 1.3 | 0.4 | 
O=C(Nc1ccc(C(F)(F)F)cc1)N1CCC(F)(c2ncccc2Cl)CC1 [Compound 203] |  |  | aqueous solubility at pH 6.8 (in words) [1]: insoluble
O=C(Nc1ccc(S(=O)(=O)C(F)(F)F)cc1)N1CCC(F)(c2ncccc2Cl)CC1 [Compound 210] | 2.0 | 0.4 | 
CC(C)S(=O)(=O)c1ccc(NC(=O)N2CC=C(c3ncc(CO)cc3Cl)CC2)cc1 [Compound K3] |  |  | IC50 [2]: > 10 µM
O=C(Nc1ccc(C(F)(F)F)cc1)N1CC=C(c2ncccc2Cl)CC1 [Compound 200] | < 0.1 | < 0.1 | time to maximum plasma concentration after administration ([4]; animal plasma): 3.1 h; aqueous solubility at pH 6.8 (in words) [1]: insoluble
O=C(Nc1ccc(OC(F)(F)F)c(-c2ccccc2)c1)N1CC=C(c2ncc(CO)cc2Cl)CC1 [Compound D3] |  |  | IC50 [2]: 0.565 ± 0.0586 µM
O=C(Nc1ccc(C(F)(F)F)c(Cl)c1)N1CCC(F)(c2ncc([C@H](O)CO)cc2F)CC1 [Compound Q3] |  |  | IC50 [2]: 0.0143 ± 0.0013 µM
O=C(Nc1ccc(C(F)(F)F)c(Cl)c1)N1CCC(F)(c2ncc([C@@H](O)CO)cc2F)CC1 [Compound P5] |  |  | IC50 [2]: 0.0495 µM
O=C(O)c1cnc(C2=CCN(C(=O)Nc3ccc(C(F)(F)F)cc3)CC2)c(Cl)c1 [Compound M5] |  |  | IC50 [2]: > 25 µM

Now from value to molecule, other results behind:

aqueous solubility at pH 1.2 [1] [μM] | aqueous solubility at pH 6.8 [1] [μM] | Structure (SMILES) | also measured
> 50 | 22.6 | O=C(Nc1ccc(C(F)(F)F)c(F)c1)N1CCC(F)(c2ncc([C@H](O)CO)cc2Cl)CC1 [Compound F1] | 
> 50 | > 50 | O=C(Nc1ccc(C(F)(F)F)cc1)N1CC=C(c2ncc(CO)cc2Cl)CC1 [Compound J2] | 
> 50 | > 50 | O=C(Nc1ccc(C(F)(F)F)cc1)N1CC=C(c2ncc([C@H](O)CO)cc2F)CC1 [Compound U1] | 
> 50 | > 50 | CN(C)Cc1cnc(C2=CCN(C(=O)Nc3ccc(C(F)(F)F)cc3)CC2)c(Cl)c1 [Compound H6] | 
> 50 | > 50 | O=C(Nc1ccc(S(=O)(=O)C(F)(F)F)cc1)N1CCC(F)(c2ncc([C@H](O)CO)cc2Cl)CC1 [Compound H1] | 
> 50 | 38.2 | CC(O)c1cnc(C2=CCN(C(=O)Nc3ccc(C(F)(F)F)cc3)CC2)c(Cl)c1 (centres unmarked) [Compound G2] | 
> 50 | > 50 | O=C(Nc1ccc(C(F)(F)F)cc1)N1CC=C(c2ncc([C@H](O)CO)cc2Cl)CC1 [Compound Z1, (S)-3-Chloro-5-(1,2-dihydroxy-ethyl)-3′,6′-dihydro-2′H-[2,4]bipyridinyl-1′-carboxylic acid (4-trifluoromethyl-phenyl)amide] | time to maximum plasma concentration after administration ([4]; animal plasma): 2.5 h; maximum plasma concentration relative to the maximum for compound 200 ([4]; animal plasma, for a given dose): 2.5 times; plasma concentration up to 24 h compared with compound 200 ([4]; up to 24 h): consistently greater
> 50 | > 50 | O=C(Nc1ccc(C(F)(F)F)cc1)N1CCC(F)(c2ncc([C@H](O)CO)cc2F)CC1 [Compound N6] | 
> 50 | > 50 | O=C(O)Cc1cnc(C2=CCN(C(=O)Nc3ccc(C(F)(F)F)cc3)CC2)c(Cl)c1 [Compound G6] | 
> 50 | > 50 | O=C(Nc1ccc(C(F)(F)F)c(F)c1)N1CC=C(c2ncc([C@H](O)CO)cc2Cl)CC1 [Compound S1, (S)-3-Chloro-5-(1,2-dihydroxy-ethyl)-3′,6′-dihydro-2′H-[2,4]bipyridinyl-1′-carboxylic acid (3-fluoro-4-trifluoromethyl-phenyl)amide] | 
1.0 | 3.0 | CCOC(=O)c1cnc(C2=CCN(C(=O)Nc3ccc(C(F)(F)F)cc3)CC2)c(Cl)c1 [Compound F2] | 
> 50 | 26.4 | O=C(Nc1ccc(C(F)(F)F)c(Cl)c1)N1CC=C(c2ncc([C@H](O)CO)cc2F)CC1 [Compound U3] | 
> 50 | 17.4 | O=C(Nc1ccc(C(F)(F)F)c(F)c1)N1CCC(F)(c2ncc([C@H](O)CO)cc2F)CC1 [Compound Y3] | 
> 50 | 9.2 | COC(=O)Cc1cnc(C2=CCN(C(=O)Nc3ccc(C(F)(F)F)cc3)CC2)c(Cl)c1 [Compound F6] | 
